The values below are quoted from earlier work in patent US20050239864A1, “Novel tumor-selective chemotherapeutic agents” (priority 2004, published 2005).

The target of one data set is HSA (Homo sapiens, UniProt P02768). The following applies: exogenously added HSA; cited from earlier work.
Data set [1] deals with MDA-MB 435 human breast cancer. Conditions: cited from earlier work.
The next data set has as its target T1, endogenous albumin (Homo sapiens, UniProt P02768).
T1 construct: To determine the coupling rate and selectivity of Dox-MH for endogenous albumin, Dox-MH was incubated with human blood plasma; from tissue; host or cells: human blood plasma
Conditions: human blood plasma; cited from earlier work.

The test system of data set [2] is mouse renal RENCA, human breast cancers MDA-MB 435 and MCF-7. Conditions: three animal tumor models; cited from earlier work.

Sequence of HSA (P02768 25-609): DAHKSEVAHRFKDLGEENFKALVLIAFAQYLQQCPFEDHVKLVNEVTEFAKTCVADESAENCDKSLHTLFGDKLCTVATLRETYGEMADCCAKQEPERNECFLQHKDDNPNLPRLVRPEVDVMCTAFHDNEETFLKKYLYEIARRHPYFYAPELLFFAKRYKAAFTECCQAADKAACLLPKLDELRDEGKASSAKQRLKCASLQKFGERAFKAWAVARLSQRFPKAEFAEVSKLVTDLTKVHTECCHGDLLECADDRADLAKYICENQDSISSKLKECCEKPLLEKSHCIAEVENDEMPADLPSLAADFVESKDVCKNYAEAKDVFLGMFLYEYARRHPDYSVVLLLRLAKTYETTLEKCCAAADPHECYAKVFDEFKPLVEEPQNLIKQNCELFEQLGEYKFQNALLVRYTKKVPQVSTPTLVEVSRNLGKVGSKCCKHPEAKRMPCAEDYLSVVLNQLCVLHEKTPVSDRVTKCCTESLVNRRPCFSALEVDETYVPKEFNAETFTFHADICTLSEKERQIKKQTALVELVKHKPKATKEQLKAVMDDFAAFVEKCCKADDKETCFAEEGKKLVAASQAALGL
T1 sequence (P02768 25-609): as above

On to `COc1cccc2c1C(=O)c1c(O)c3c(c(O)c1C2=O)C[C@@](O)(/C(CO)=N/NC(=O)CCCCCN1C(=O)C=CC1=O)C[C@@H]3O[C@H]1C[C@H](N)[C@H](O)[C@H](C)O1` [Dox-MH], for which, on HSA, the “time by which all had reacted with HSA” value is on record as at most 90 min and the “time by which majority had reacted with HSA” value was at most 5 min. Moreover, the “antitumor response” value in data set [1] (Dox-MH at optimal dose (3×23 mg/kg)) was “complete remissions were achieved”. Also, the “change in body weight” value in data set [1] (after 24 days of drug administration) is reported as “did not produce an overall change in body weight”. On endogenous albumin, the “time after which reaction with HSA was almost complete” value is given as 2 min and the “time by which all had reacted” value is recorded as at most 90 min. Further, the “antitumor efficacy and toxicity versus free doxorubicin” value in data set [2] is on record as “distinctly superior to free doxorubicin”.
